In the supplement of paper PMC10307832:

Assays:
Assay in all cases: relative viability (nuclei count vs DMSO), 5 days (fraction); higher = more cells survive
Midostaurin + Alpelisib = compound: CO[C@@H]1[C@H](N(C)C(=O)c2ccccc2)C[C@H]2O[C@]1(C)n1c3ccccc3c3c4c(c5c6ccccc6n2c5c31)C(=O)NC4 [Midostaurin] + Cc1nc(NC(=O)N2CCC[C@H]2C(N)=O)sc1-c1ccnc(C(C)(C)C(F)(F)F)c1 [Alpelisib] (partner 2 µM)
Summary of the method: (§1)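 Relative viability divides the nuclei count in treated wells by that in vehicle wells. Lung cancer cell lines were seeded in 1536-well plates, dosed by pin tool the next day, and fixed and stained after 5 days in one step with final 0.05% Triton X-100, 1% formaldehyde and 1 ug/ml Hoechst. Dosing was a single drug or a fixed anchor-drug dose plus five library-drug doses (not always all listed) in √10 steps, and values are medians of duplicate plates imaged at 4×.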

Midostaurin + Dasatinib = compound: CO[C@@H]1[C@H](N(C)C(=O)c2ccccc2)C[C@H]2O[C@]1(C)n1c3ccccc3c3c4c(c5c6ccccc6n2c5c31)C(=O)NC4 [Midostaurin] + Cc1nc(Nc2ncc(C(=O)Nc3c(C)cccc3Cl)s2)cc(N2CCN(CCO)CC2)n1 [Dasatinib] (partner 0.075 µM)
Summary of the method: as §1

[1] = compound: COc1cc(-c2nn([C@H]3CC[C@H](N4CCN(C(C)=O)CC4)CC3)c3ncnc(N)c23)ccc1NC(=O)c1cc2ccccc2n1C + CC(=O)c1c(C)c2cnc(Nc3ccc(N4CCNCC4)cn3)nc2n(C2CCCC2)c1=O [Palbociclib] (partner 0.5 µM)
Summary of the method: as §1

[2] = compound: COc1cc(-c2nn([C@H]3CC[C@H](N4CCN(C(C)=O)CC4)CC3)c3ncnc(N)c23)ccc1NC(=O)c1cc2ccccc2n1C + COc1cc2c(Oc3ccc(NC(=O)C4(C(=O)Nc5ccc(F)cc5)CC4)cc3F)ccnc2cc1OCCCN1CCOCC1 [Foretinib] (partner 0.25 µM)
Summary of the method: as §1

[3] = compound: COc1cc(-c2nn([C@H]3CC[C@H](N4CCN(C(C)=O)CC4)CC3)c3ncnc(N)c23)ccc1NC(=O)c1cc2ccccc2n1C + C[C@@H](Oc1cc(-c2cnn(C3CCNCC3)c2)cnc1N)c1c(Cl)ccc(F)c1Cl [Crizotinib] (partner 1 µM)
Summary of the method: as §1

| Cell Line | relative viability (Midostaurin + Alpelisib; first compound 0.01 µM) | relative viability (Midostaurin + Alpelisib; first compound 0.03162 µM) | relative viability (Midostaurin + Alpelisib; first compound 0.1 µM) | relative viability (Midostaurin + Alpelisib; first compound 0.3162 µM) | relative viability (Midostaurin + Dasatinib; first compound 0.01 µM) | relative viability (Midostaurin + Dasatinib; first compound 0.03162 µM) | relative viability (Midostaurin + Dasatinib; first compound 0.1 µM) | relative viability (Midostaurin + Dasatinib; first compound 0.3162 µM) | relative viability ([1]; first compound 0.0128 µM) | relative viability ([1]; first compound 0.128 µM) | relative viability ([1]; first compound 1.28 µM) | relative viability ([2]; first compound 0.0128 µM) | relative viability ([2]; first compound 0.128 µM) | relative viability ([2]; first compound 1.28 µM) | relative viability ([3]; first compound 0.0128 µM) | relative viability ([3]; first compound 0.04048 µM) | relative viability ([3]; first compound 0.128 µM) | relative viability ([3]; first compound 1.28 µM) | relative viability ([1]; first compound 0.04048 µM) | relative viability ([2]; first compound 0.04048 µM) |
| --- | --- | --- | --- | --- | --- | --- | --- | --- | --- | --- | --- | --- | --- | --- | --- | --- | --- | --- | --- | --- |
| NCI-H2087 | 1.2 | 0.978 | 1.05 | 1.06 | 1.03 | 0.757 | 0.917 | 0.777 | 0.244 | 0.237 | 0.222 | 1.25 | 1.11 | 0.948 | 1.1 | 1 | 0.703 | 0.947 | – | – |
| NCI-H2126 | 0.772 | 0.733 | 0.765 | 0.804 | 0.623 | 0.502 | 0.596 | 0.644 | 0.35 | 0.344 | 0.329 | 1.34 | 1.11 | 0.983 | 1.16 | 1.08 | 1.04 | 0.749 | 0.372 | 1 |
| NCI-H2170 | 0.828 | 0.856 | 0.722 | 0.707 | 0.572 | 0.55 | 0.512 | 0.735 | 0.445 | 0.383 | 0.327 | 1.09 | 0.991 | 0.97 | 1.3 | 1.13 | 1.2 | 0.923 | 0.396 | 1.01 |
| NCI-H2228 | 0.891 | 0.762 | 0.7 | 0.695 | 0.501 | 0.622 | 0.534 | 0.526 | 0.761 | 0.772 | 0.522 | 0.92 | 0.825 | 0.622 | 0.426 | 0.489 | 0.428 | 0.276 | 0.672 | 1.05 |
| NCI-H2347 | 0.995 | 0.988 | 0.964 | 0.992 | 0.328 | 0.305 | 0.281 | 0.327 | 0.461 | 0.392 | 0.416 | 0.788 | 0.864 | 0.834 | 0.795 | 0.751 | 0.797 | 0.736 | 0.43 | 0.781 |
| NCI-H2405 | 0.87 | 0.903 | – | 0.573 | 0.216 | 0.199 | 0.212 | 0.201 | 0.551 | 0.486 | 0.269 | 1.09 | 1.04 | 0.535 | 0.827 | – | 0.733 | 0.442 | 0.396 | 0.855 |
| NCI-H3122 | 0.86 | 0.683 | 0.924 | 0.878 | 0.779 | 0.698 | 0.731 | 0.978 | 0.197 | 0.169 | 0.189 | 1.02 | 0.877 | 0.777 | 0.289 | – | 0.269 | 0.229 | – | – |
| PC-3 [JPC-3] | 1 | 0.925 | 1.02 | 1.04 | 0.952 | 0.893 | 1.07 | 1.01 | 0.588 | 0.529 | 0.676 | 1.07 | 1 | 1.06 | 1.05 | 1.09 | 0.968 | 1.08 | 0.621 | 1.14 |
| PC-14 | 0.827 | 0.896 | 0.891 | 0.785 | 0.251 | 0.253 | 0.218 | 0.182 | 0.515 | 0.486 | 0.433 | 0.956 | 0.885 | 0.979 | 0.941 | 0.98 | 0.965 | 0.87 | 0.503 | 1.06 |
| RERF-LC-KJ | 0.846 | 1.02 | 0.924 | 0.969 | 0.848 | 0.934 | 0.876 | 0.709 | 1.08 | 1.07 | 0.972 | 0.867 | 0.838 | 0.864 | 0.897 | 0.914 | 0.742 | 0.846 | 1.19 | 0.957 |
| SK-LU-1 | 0.913 | 1.17 | 0.894 | 0.647 | 0.198 | 0.191 | 0.176 | 0.175 | 0.41 | 0.357 | 0.249 | 0.769 | 0.691 | 0.376 | 1 | 0.975 | 0.658 | 0.506 | 0.369 | 0.798 |
| SK-MES-1 | 0.886 | 0.818 | 0.986 | 0.671 | 0.309 | 0.36 | 0.393 | 0.237 | 0.298 | 0.319 | 0.277 | 0.894 | 0.986 | 1 | 1.02 | 1.04 | 0.869 | 0.971 | 0.374 | 1.14 |
| SW 1573 | 0.73 | 0.721 | 0.805 | 0.618 | 0.534 | 0.548 | 0.456 | 0.161 | 0.393 | 0.172 | 0.347 | 0.808 | 0.887 | 0.728 | 0.775 | 0.703 | 0.636 | 0.652 | 0.388 | 0.869 |
